Measurements from US7022836B2, “Methods for producing and transforming cassava protoplasts” (National Starch and Chemical Investment Holding Corporation, priority 1999, dated 2006).
Marks after values point to notes of the source that are not given here.

Test system: cassava leaf explants
Assay: Primary somatic embryogenesis from leaf explants (mature embryos per cultured leaf explant)
Format: cell-based
Settings: for leaf explants that formed ME / number of ME/CLE: maximum
Method: The procedure to obtain FEC is outlined in FIG. 1. 1t starts with the induction of primary embryos. Primary embryos are formed in a two step procedure. In the first step explants are cultured on medium supplemented with salts and vitamins (preferably Murashige and Skoog (1962)), a carbohydrate source (for example 20 g/l sucrose) and an auxin (e.g. 1–8 mg/l picloram, or dicamba or 2,4-D) for the initiation of embryos. After 10 to 15 days on this first medium bipolar torpedo shaped embryos are formed. […] After transfer of the explants with torpedo shaped embryos to a step 2 medium (the same medium as step 1 but without an auxin, with eventually the addition of cytokinins) the torpedo shaped embryos become mature.
In the presently used protocol there is genotypic variation in the number of mature embryos formed per cultured explant. The genotypes M.Col1505, M.Col22 and Gading gave the highest numbers of mature embryos per cultured leaf explant (ME/CLE). However, the number of mature embryos formed was low. In M.Col22 a maximum of 22% of the leaf explants isolated from in vitro grown plants and cultured on a step 1 medium with 4 mg/l 2,4-D, formed ME with a maximum number of 0.8 ME/CLE. On a step 1 medium with 8 mg/l 2,4-D a maximum of 49% of the leaf explants formed ME with a maximum number of 3.5 ME/CLE.
Mathews et al. (1993) improved the efficiency of primary embryogenesis in the genotype M.Co11505 by transferring explants after 15 days of step 1 medium to a growth regulator-free medium supplemented with 0.5% charcoal. On this medium maturation was improved and as a result the number of mature embryos increased from 0.4 in the control to 3,4 ME/CLE. The best results were obtained if donor plants were pretreated with auxins as 2,4-D or picloram or Dicamba. For this, plants were grown in liquid MS20 medium and supplied with the auxin (final concentration 8 mg/l) after 12 days of growth. Two days later leaf explants were isolated of the donor plants and cultured on step 1 medium with 8 mg/l 2,4-D, picloram or Dicamba.

[1] = M.Col22, step 1 medium with 4 mg/l 2,4-D
[2] = M.Col22, step 1 medium with 8 mg/l 2,4-D

O=C(O)COc1ccc(Cl)cc1Cl [2,4-D, 2,4-dichlorophenoxyacetic acid]
leaf explants that formed ME [1]: ≤ 22% | number of ME/CLE [1]: ≤ 0.8 ME/CLE | leaf explants that formed ME [2]: ≤ 49% | number of ME/CLE [2]: ≤ 3.5 ME/CLE | primary mature embryos per cultured leaf explant after 2,4-D pretreatment (genotype M.Col22, pretreatment yes): 9.4 # mature embryos per cultured leaf explant | primary mature embryos per cultured leaf explant after 2,4-D pretreatment (genotype TMS 4(2)1244, pretreatment yes): 0 # mature embryos per cultured leaf explant | primary mature embryos per cultured leaf explant after 2,4-D pretreatment (genotype TMS 30001, pretreatment yes): 0 # mature embryos per cultured leaf explant | primary mature embryos per cultured leaf explant after 2,4-D pretreatment (genotype TMS 30211, pretreatment yes): 0 # mature embryos per cultured leaf explant | primary mature embryos per cultured leaf explant after 2,4-D pretreatment (genotype TMS 30395, pretreatment yes): 0.1 # mature embryos per cultured leaf explant | primary mature embryos per cultured leaf explant after 2,4-D pretreatment (genotype TMS 30555, pretreatment yes): 0.7 # mature embryos per cultured leaf explant | primary mature embryos per cultured leaf explant after 2,4-D pretreatment (genotype TMS 30572, pretreatment yes): 0 # mature embryos per cultured leaf explant | primary mature embryos per cultured leaf explant after 2,4-D pretreatment (genotype TMS 50395, pretreatment yes): <0.1 # mature embryos per cultured leaf explant | primary mature embryos per cultured leaf explant after 2,4-D pretreatment (genotype TMS 60444, pretreatment yes): 1.1 # mature embryos per cultured leaf explant | primary mature embryos per cultured leaf explant after 2,4-D pretreatment (genotype TMS 60506, pretreatment yes): <0.1 # mature embryos per cultured leaf explant | primary mature embryos per cultured leaf explant after 2,4-D pretreatment (genotype TMS 90059, pretreatment yes): <0.1 # mature embryos per cultured leaf explant | primary mature embryos per cultured leaf explant after 2,4-D pretreatment (genotype TMS 90853, pretreatment yes): 0.2 # mature embryos per cultured leaf explant
